In assay [1] the test system is T-lymphoblastic leukemia cell line CEM. The assay is described as follows: Calcein AM cytotoxicity assay, CEM. The class given is cell-based. As to conditions: Calcein AM assay, 72 h; means ± SD, three independent experiments in triplicate. The protocol:
(§1) Stock solutions (10 mmol/l) of the tested compounds were prepared by dissolving relevant quantity of the substance in DMSO. […] Calcein AM was obtained from Molecular Probes (Invitrogen Corporation, CA, USA).
(§2) All cell lines were cultured in DMEM medium (Sigma, Mo., USA). Medium was supplemented with 10% heat-inactivated fetal bovine serum, 2 mmol/l L-glutamine and 1% penicillin-streptomycin. The cell lines were maintained under standard cell culture conditions at 37° C. and 5% CO2 in a humid environment. Cells were subcultured twice or three times a week using the standard trypsinization procedure.
(§3) All cell lines were cultured in DMEM medium (Sigma, Mo., USA) supplemented with 10% fetal calf serum, 2 mM glutamine, 100 U/ml penicillin and 100 μg/ml streptomycin, at 37° C. in a fully humidified atmosphere containing 5% CO2. Suspensions of these lines (ca. 1.0×10^5 cells/ml) were placed in 96-well microtitre plates and after 3 h of stabilization the tested compounds were added in serially diluted concentrations. Saponins were dissolved in dimethylsulfoxide (DMSO) before addition to cultures. Control cultures were treated with DMSO alone. The final concentration of DMSO in the reaction mixtures never exceeded 0.6%. Four-fold dilutions of the intended test concentration were added at time zero in 20 μl aliquots to the microtitre plate wells. Usually, each test compound was evaluated at six 4-fold dilutions and in routine testing; the highest well concentration was 50 μM, although this varied in a few cases, depending on the test compound. After 72 h of culture, the cells were incubated with Calcein AM solution (Molecular Probes) for 1 h. The fluorescence of viable cells was quantified using a Fluoroscan Ascent instrument (Microsystems).

For assay [2], the system named is breast carcinoma cell line MCF7. The assay is described as follows: Calcein AM cytotoxicity assay, MCF7. The settings on record: Calcein AM assay, 72 h; means ± SD, three independent experiments in triplicate. The class given is cell-based, human. The protocol:
as §1, §2, §3

For assay [3], the system named is malignant melanoma cell line G-361. In words: Calcein AM cytotoxicity assay, G-361. The settings on record: 72 h, means ± SD, three independent experiments in triplicate. The class given is cell-based, human. The protocol:
as §1, §2, §3

Assay [4] relates to cervical carcinoma cell line HeLa. In words: Calcein AM cytotoxicity assay, HeLa. The class given is cell-based. As to conditions: 72 h, means ± SD, three independent experiments in triplicate. Here is the method:
as §1, §2, §3

Assay [5] has as its system lung carcinoma cell line A549. In words: Calcein AM cytotoxicity assay, A549. The class given is cell-based, human. As to conditions: 72 h, means ± SD, three independent experiments in triplicate, read-out: IC50, A 549. Here is the method: as §1, §2, §3
Assay [6] deals with human glioblastoma cell line T98. The assay is described as follows: Calcein AM cytotoxicity assay, T98. The class given is cell-based. The settings on record: 72 h, means ± SD, three independent experiments in triplicate. The protocol:
Stock solutions (10 mmol/l) of the tested compounds were prepared by dissolving relevant quantity of the substance in DMSO. Dulbecco's modified Eagle's medium (DMEM, RPMI 1640, F-12 medium), fetal bovine serum (FBS), L-glutamine, penicillin, streptomycin were purchased from Sigma (MO, USA). Calcein AM was obtained from Molecular Probes (Invitrogen Corporation, CA, USA).
The screening cell lines (T-lymphoblastic leukaemia cell line CEM, breast carcinoma cell line MCF-7, cervical carcinoma cell line HeLa, human glioblastoma cell line T98, human malignant melanoma G-361, human osteogenic sarcoma cell line HOS, carcinomic human alveolar basal epithelial cells A549, human colon carcinoma cells HCT 116 and human fibroblasts BJ) were obtained from the American Type Culture Collection (Manassas, Va., USA). All cell lines were cultured in DMEM medium (Sigma, Mo., USA). Medium was supplemented with 10% heat-inactivated fetal bovine serum, 2 mmol/l L-glutamine and 1% penicillin-streptomycin. The cell lines were maintained under standard cell culture conditions at 37° C. and 5% CO2 in a humid environment. Cells were subcultured twice or three times a week using the standard trypsinization procedure.
as §3, with “Cytotoxic activities of the novel compounds, obtained according to this invention, were tested in vitro against following cancer cell lines: T-lymphoblastic leukemia cell line CEM; breast carcinoma cell line MCF7, lung carcinoma cell line A549, cervical carcinoma cell line HeLa, malignant melanoma cell line G-361, osteosarcoma cell line HOS, human glioblastoma cell line T98, human colon carcinoma cells HCT 116 and normal human fibroblasts BJ. All” for “All”, “(Microsystems). The percentage of surviving cells in each well was calculated from the equation […]=(ODdrug exposed well/mean ODcontrol wells)×100%. The IC50 value, the drug concentration lethal to 50% of the tumour cells, was calculated from the obtained dose-response curves.” for “(Microsystems).”

In assay [7] the test system is normal human fibroblasts BJ. The assay is described as follows: Calcein AM cytotoxicity assay, normal fibroblasts BJ. The class given is cell-based. As to conditions: 72 h, means ± SD, three independent experiments in triplicate. Here is the method: as §1, §2, §3
Another assay deals with CEM cells. The assay is described as follows: Flow cytometry cell cycle and apoptosis (subG1) analysis. The class given is cell-based. Here is the method: The leukemia cancer CEM cells were trypsinized, seeded in 6 well plates, and immediately incubated with the respective compounds. […] Triton X-100, and 50 μg/ml propidium iodide in PBS. DNA content was assessed with a flow cytometer (Cell Lab Quanta SC—MPL, Beckman Coulter, Calif., USA). In a histogram analysis, distribution of cells into the subG1 (“apoptotic cells”), the G0/G1, S and the G2/M peak was quantified using software MultiCycle AV (Phoenix Flow Systems, CA, USA).
For orientation: Flow cytometry measures light scatter and fluorescence of single cells or particles in a stream.

By IC50 is commonly meant the midpoint of a concentration-inhibition curve. With `C/C=C/C(=O)OC[C@@H](C)[C@@]1(O)[C@@H](O[C@@H]2OC[C@H](O)[C@H](O[C@@H]3OC[C@@H](O)[C@H](O)[C@H]3OC(=O)c3ccc(OC)cc3)[C@H]2OC(C)=O)C[C@H]2[C@@H]3CC=C4C[C@@H](O)CC[C@]4(C)[C@H]3CC[C@@]21C` [Compound 7, (20R)-21-O-[(E)-but-2-enoyl]-20-methylpregn-5-ene-3β,16β,17α,21-tetraol 16-O-{2-O-(4-methoxybenzoyl)-β-D-xylopyranosyl-(1→3)-2′-O-acetyl-α-L-arabinopyranoside}], the IC50 in assay [1] is 340 ± 40 nM; in assay [2], 840 ± 510 nM; in assay [3], 890 ± 90 nM; in assay [4], 1940 ± 50 nM; in assay [5], 550 ± 200 nM; in assay [6] it was 940 ± 20 nM. The IC50 in assay [7] was 230 ± 80 nM. Also, the “subG1 phase of the cell cycle (apoptotic cells)” value with CEM cells (CEM cell line after treatment) is “increase in subG1 phase”. In the assay with CEM cells (CEM cells, 24 h (FIG. 3)), the “amount of debris (subG1) compared with untreated controls” value came out at 3 fold. Further, the “distribution of CEM cells in cell cycle phases (FIG. 2)” value in the assay with CEM cells (CEM cells, increasing concentrations) was “increased the number of S-phase and G2/M cells with concomitant decrease of G0/G1 cells in dose-dependent manner”. Moreover, the “Apoptosis subG1” value with CEM cells (CEM, 24 h, 3 μM) was 15%. Further, in the assay on CEM cells (CEM, 24 h, 3 μM), the “Cell cycle distribution G0/G1” value was 14%. In the assay on CEM cells (CEM, 24 h, 3 μM), the “Cell cycle distribution G2/M” value was 30%. The “Cell cycle distribution S” value in the assay on CEM cells (CEM, 24 h, 3 μM) was 41%.

Values taken from patent US8552161B2, “Saponin compounds, methods of preparation thereof, use thereof and pharmaceutical compositions” (Uniwersytet W Bialymstoku, priority 2009, dated 2013).
